System: Hepatitis B virus
Test: Antiviral activity against HBV infected in human HepG2 cells expressing hNTCP-C4 assessed as viral envelope surface protein secretion treated for 16 hrs followed by compound washout measured after 12 days by ELISA
Format: functional, organism-based
Details: not given
CCC(=O)Cc1cc(=O)c2c(C)cc(O)cc2o1 gave an IC50 of 72.4 µM.
Molecule CCC(=O)CC1(O)CC(=O)c2c(C)cc(O)cc2O1 (stereo not given) has an IC50 of 52.1 µM.
Cc1cccc(O)c1C(=O)Cc1c(C=O)cc(O)c(C)c1O gave an IC50 of 51.4 µM.
CCC(C)CC(C)C(=O)OC1(C)C(=O)Cc2cc(O)c3c(c2C1=O)C[C@@H](O)C[C@H]3C (stereo not given in full) showed an IC50 of 91.2 µM.
CCC(C)CC(C)C(=O)OC1(C)C(=O)c2c(cc(O)c3c2C[C@@H](O)C[C@H]3C)C(C)(O)C1=O (stereo not given in full) showed an IC50 of 10.5 µM.

System: not listed separately
Test: Cytotoxicity against human HepG2 cells expressing hNTCP-C4 assessed as cell viability by MTT assay
Format: cell-based
Parameters: concentration or dose not given beside the values
Details: read-out: Activity
For CCC(=O)Cc1cc(=O)c2c(C)cc(O)cc2o1, the viability was > 90%.
For CCC(=O)CC1(O)CC(=O)c2c(C)cc(O)cc2O1 (stereo not given), the viability was > 90%.
With Cc1cccc(O)c1C(=O)Cc1c(C=O)cc(O)c(C)c1O the viability was > 90%.
In the case of CCC(C)CC(C)C(=O)OC1(C)C(=O)Cc2cc(O)c3c(c2C1=O)C[C@@H](O)C[C@H]3C (stereo not given in full), the viability is reported as > 90%.
With CCC(C)CC(C)C(=O)OC1(C)C(=O)c2c(cc(O)c3c2C[C@@H](O)C[C@H]3C)C(C)(O)C1=O (stereo not given in full) the viability was > 90%.

— ChEMBL document CHEMBL3616413, “Isolation and structure of vanitaracin A, a novel anti-hepatitis B virus compound from Talaromyces sp” (Bioorg Med Chem Lett, 2015)
